From patent publication US20220281863A1, “COMPOUNDS, COMPOSITIONS AND METHODS OF TREATING DISORDERS” (Reverie Labs, Inc., priority 2019, published 2022)
pIC50: −log10 of the molar value.

Biological target: T1, CDK9/CycTI (Homo sapiens, UniProt P50750)
T1 construct: purchased Carna biosciences 04-110
Assay: In vitro kinase assay (ADP-Glo Kinase Assay Kit), CDK9/CycTI
Format: biochemical
Settings: 30 ng CDK9/CycTI, 30 μM CDKtide, 10 μM ATP, 2 hours at room temperature; 8 to 10-point dose response (Tier2); read-out: IC50 Score
Method: In vitro kinase assay was performed in white, 384-low volume plates in 5 μl reaction volume consisting of 30 ng CDK9/CycTI (Carna biosciences #04-110), 30 μM CDKtide (Signalchem #C06-58) and 10 μM ATP made in reaction buffer (40 mM Tris, pH 7.5; 20 mM MgCl2; 0.1 mg/ml BSA; 50 μM DTT) at 1 μM & 10 μM compound concentration for Tier1 assay and 8 to 10-point dose response curve for Tier2 assay. After 2 hours of incubation at room temperature, the amounts of […] in the kinase reaction were quantified using ADP-Glo™ Kinase Assay Kit (Promega #V9102). Briefly, 5 μl of ADP-Glo™ reagent was added to stop the kinase reaction and plate was incubated for 40 minutes at room temperature. Subsequently, 10 μl of Kinase Detection Reagent was added and luminescence was recorded after 30 minutes of incubation at room temperature.
The inhibition of kinase activity was determined relative to positive control (2% DMSO) and IC50 was calculated using GraphPad prism software (four parameter-variable slope equation).

T1 sequence (P50750 whole entry): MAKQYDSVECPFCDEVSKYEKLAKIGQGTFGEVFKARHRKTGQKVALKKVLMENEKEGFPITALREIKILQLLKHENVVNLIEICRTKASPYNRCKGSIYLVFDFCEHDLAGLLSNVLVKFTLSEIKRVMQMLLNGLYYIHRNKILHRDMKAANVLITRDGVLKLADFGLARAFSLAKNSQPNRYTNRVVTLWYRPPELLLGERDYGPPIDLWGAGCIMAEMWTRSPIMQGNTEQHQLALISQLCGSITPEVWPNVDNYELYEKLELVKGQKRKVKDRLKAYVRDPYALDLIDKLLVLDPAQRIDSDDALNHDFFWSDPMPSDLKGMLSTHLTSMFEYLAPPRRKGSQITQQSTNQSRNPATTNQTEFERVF
T1 sequence (O60563 whole entry partner): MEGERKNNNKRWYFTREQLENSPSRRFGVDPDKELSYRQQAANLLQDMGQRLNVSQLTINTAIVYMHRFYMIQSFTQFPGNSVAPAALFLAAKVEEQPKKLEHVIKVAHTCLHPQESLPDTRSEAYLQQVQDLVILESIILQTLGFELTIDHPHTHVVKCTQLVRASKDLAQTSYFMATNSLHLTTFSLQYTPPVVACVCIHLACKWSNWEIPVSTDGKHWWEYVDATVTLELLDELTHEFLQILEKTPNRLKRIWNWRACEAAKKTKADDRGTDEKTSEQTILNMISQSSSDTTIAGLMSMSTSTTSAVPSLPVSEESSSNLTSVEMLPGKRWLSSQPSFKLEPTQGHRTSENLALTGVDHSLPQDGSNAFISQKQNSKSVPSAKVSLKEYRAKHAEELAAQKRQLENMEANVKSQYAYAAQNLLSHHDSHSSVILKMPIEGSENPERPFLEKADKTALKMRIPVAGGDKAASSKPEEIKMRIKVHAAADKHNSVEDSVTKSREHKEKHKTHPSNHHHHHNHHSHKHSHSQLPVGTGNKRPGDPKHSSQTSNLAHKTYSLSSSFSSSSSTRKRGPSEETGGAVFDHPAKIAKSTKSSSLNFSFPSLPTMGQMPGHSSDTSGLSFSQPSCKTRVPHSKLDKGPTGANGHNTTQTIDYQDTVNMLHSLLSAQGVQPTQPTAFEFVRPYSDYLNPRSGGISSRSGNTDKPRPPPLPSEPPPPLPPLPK

Row | pIC50 | SMILES
1 | 6.30 to 7.00 | N[C@H]1CCC[C@@H](C(=O)Nc2nc3ccc4cc(F)ccc4c3s2)C1 [Compound 63, (1R,3S)-3-amino-N-(7-fluoronaphtho[2,1-d]thiazol-2-yl)cyclohexane-1-carboxamide]
2 | 6.00 to 6.30 | CC(C)(C)C(=O)N1CCC(C(=O)Nc2nc3ccc4cc(F)ccc4c3s2)CC1 [Compound 64]
3 | 6.30 to 7.00 | CN1CCC(C(=O)Nc2nc3ccc4cc(F)ccc4c3s2)C1 (centres unmarked) [Compound 65, N-(7-fluoronaphtho[2,1-d]thiazol-2-yl)-1-methylpyrrolidine-3-carboxamide]
4 | 6.00 to 6.30 | O=C(Nc1nc2ccc3cc(F)ccc3c2s1)[C@@H]1CCCCN1 [Compound 68]
5 | 7.00 to 9.00 | CC(=O)N1CC[C@@H]1C(=O)Nc1nc2ccc3cc(F)ccc3c2s1 [Compound 69, (R)-1-acetyl-N-(7-fluoronaphtho[2,1-d]thiazol-2-yl)azetidine-2-carboxamide]
6 | 7.00 to 9.00 | CC(=O)N(C)[C@@H]1CC[C@H](C(=O)Nc2nc3ccc4cc(F)ccc4c3s2)C1 [Compound 71, (1S,3R)—N-(7-fluoronaphtho[2,1-d]thiazol-2-yl)-3-(N-methylacetamido)cyclopentane-1-carboxamide]
7 | 4.70 to 6.00 | CC(=O)N1CC[C@H]1C(=O)Nc1nc2ccc3cc(F)ccc3c2s1 [Compound 73, (S)-1-acetyl-N-(7-fluoronaphtho[2,1-d]thiazol-2-yl)azetidine-2-carboxamide]
8 | 6.00 to 6.30 | O=C(Nc1nc2ccc3cc(F)ccc3c2s1)[C@H]1CCCN1 [Compound 74]
9 | 7.00 to 9.00 | O=C(CCl)N[C@@H]1CCC[C@H](C(=O)Nc2nc3ccc4cc(F)ccc4c3s2)C1 [Compound 75]
10 | 4.70 to 6.00 | O=C(Nc1nc2ccc3cc(F)ccc3c2s1)[C@@H]1CCNC1 [Compound 77]
11 | 6.30 to 7.00 | O=C(Nc1nc2ccc3cc(F)ccc3c2s1)[C@@H]1CCCO1 [Compound 78, (S)—N-(7-fluoronaphtho[2,1-d]thiazol-2-yl)tetrahydrofuran-2-carboxamide]
12 | 7.00 to 9.00 | CC(=O)N[C@H]1CCC[C@@H](C(=O)Nc2nc3ccc4cc(F)ccc4c3s2)C1 [Compound 79, (1R,3S)-3-acetamido-N-(7-fluoronaphtho[2,1-d]thiazol-2-yl)cyclohexane-1-carboxamide]
13 | 4.70 to 6.00 | O=C(Nc1nc2ccc3cc(F)ccc3c2s1)c1nncs1 [Compound 80]
14 | 6.00 to 6.30 | CC(=O)N[C@@H]1CCC[C@@H](C(=O)Nc2nc3ccc4cc(F)ccc4c3s2)C1 [Compound 81]
15 | 4.70 to 6.00 | CC(C)(C)OC(=O)N1CC[C@H]1C(=O)Nc1nc2ccc3cc(F)ccc3c2s1 [Compound 84, Tert-butyl (S)-2-((7-fluoronaphtho[2,1-d]thiazol-2-yl)carbamoyl)azetidine-1-carboxylate]
16 | 6.30 to 7.00 | O=C(Nc1nc2ccc3cc(F)ccc3c2s1)[C@@H]1CCN1 [Compound 85, (S)—N-(7-fluoronaphtho[2,1-d]thiazol-2-yl)azetidine-2-carboxamide]
17 | 7.00 to 9.00 | CC(=O)N1CCC(C(=O)Nc2nc3ccc4cc(F)ccc4c3s2)CC1 [Compound 86]
18 | 7.00 to 9.00 | CN[C@@H]1CC[C@H](C(=O)Nc2nc3ccc4cc(F)ccc4c3s2)C1 [Compound 87, (1S,3R)—N-(7-fluoronaphtho[2,1-d]thiazol-2-yl)-3-(methylamino)cyclopentane-1-carboxamide]
19 | 4.70 to 6.00 | CC(C)(C)OC(=O)N1CC[C@@H](C(=O)Nc2nc3ccc4cc(F)ccc4c3s2)C1 [Compound 89]
20 | 6.00 to 6.30 | O=C(Nc1nc2ccc3cc(F)ccc3c2s1)[C@H]1CCN1 [Compound 90, (R)—N-(7-fluoronaphtho[2,1-d]thiazol-2-yl)azetidine-2-carboxamide]
